According to patent EP0302445B1, “A novel hypoglycemic and growth-promoting agent” (THE PROTOR CO., priority 1987, dated 1992):

Test system: insulinase
Assay: insulinase inhibitory activity measurement (method of Duckworth et al.)
Format: biochemical
Conditions: fractions of commercial bacitracin, result in words
Description: The desired fraction is believed to have a molecular weight of about 1400, approximately the same as bacitracin A or F. Their anti-insulinase and antibacterial activities can be assayed in conventional manner. For example, the insulinase inhibitory activity was measured according to the method of Duckworth, et al., Proc. Nat. Acad. Sci., 69, 3698-3702 (1972) and the anti-bacterial activity by the method of Patrick, et al., Antibiotics and Chemotherapy, 1, 133-137 (1951).
A 350 ml bed volume of CM-Sepharose in a packed column (2.8 x 56 cm) was equilibrated with 0.05M ammonium acetate, pH 4.5 One gram of commercial bacitracin dissolved in 50 ml of buffer was applied to the packed column. The material was eluted with 2 l of equilibrating buffer followed by 350 ml of 1M ammonium acetate pH 4.5 buffer. Five ml fractions were collected and absorbance measurements at 252, 280 and 290 nm were made. In addition, insulinase inhibitory activity measurements were made on each peak. […] The peaks were collected, lyophilized, weighed and dissolved in water at 5 mg/ml concentration for specific activity measurements. The material collected with the second buffer contained 5-10 % of the total weight of the applied material and 90 % of the total insulinase inhibitory capacity. The specific activity of this material was 10-12 times that of the starting commercial material.

## bacitracin F
  insulinase inhibitory activity: substantially no anti-insulinase activity
Listed as Bacitracin F
  insulinase inhibitory activity: negligible

## bacitracin A
  insulinase inhibitory activity: substantially no anti-insulinase activity
Listed as Bacitracin A
  insulinase inhibitory activity: negligible
